The target in the test is T1, HLA-DR1 (Homo sapiens, UniProt P01903+P01911, A100R/D57E/F55L/F60I/F76Y/I96L/L162R/M171V/P40L/Q125E/R42F/V115G/Y59C).
T1 construct: made in house; host or cells: Sf9 insect cells
Put plainly: Competition of synthetic peptides against 125I-labeled HA 307-319 for binding to empty HLA-DR1 (Ki).

Ends that are not written are not given here. Bounds are passed on as bounds.

A word on the Ki: it is the equilibrium dissociation constant of an inhibitor or competing ligand from its target.

Consider KMRMATPLLMQALPM [Ii 106-120], for which, for the setting “read-out: Ki vs HA 307-319, concentration inhibiting 50% of 125I-labeled HA 307-319 binding, 10 nM labeled peptide, 10 nM empty HLA-DR1 from Sf9 insect cells, pH 7.2, 37° C., 85 hours”, the Ki was < 10 nM.
On to “KMRMATPLLMQALP (MRMATPLLMQALPM) [Ii 107-120, invariant chain peptide named in b65]”, for which the “relative binding affinity to DR1 among competitor peptides” value (competition against HA peptide, empty DR1, first approximation) was “highest affinity of all the competitor peptides measured”.

The record behind these values is patent publication US6509033B1, “Immunomodulatory peptides” (President and Fellows of Harvard College, priority 1992, dated 2003).
